T1: Emi2 (Saccharomyces cerevisiae, UniProt Q04409)
T1 sequence (Q04409 2-500): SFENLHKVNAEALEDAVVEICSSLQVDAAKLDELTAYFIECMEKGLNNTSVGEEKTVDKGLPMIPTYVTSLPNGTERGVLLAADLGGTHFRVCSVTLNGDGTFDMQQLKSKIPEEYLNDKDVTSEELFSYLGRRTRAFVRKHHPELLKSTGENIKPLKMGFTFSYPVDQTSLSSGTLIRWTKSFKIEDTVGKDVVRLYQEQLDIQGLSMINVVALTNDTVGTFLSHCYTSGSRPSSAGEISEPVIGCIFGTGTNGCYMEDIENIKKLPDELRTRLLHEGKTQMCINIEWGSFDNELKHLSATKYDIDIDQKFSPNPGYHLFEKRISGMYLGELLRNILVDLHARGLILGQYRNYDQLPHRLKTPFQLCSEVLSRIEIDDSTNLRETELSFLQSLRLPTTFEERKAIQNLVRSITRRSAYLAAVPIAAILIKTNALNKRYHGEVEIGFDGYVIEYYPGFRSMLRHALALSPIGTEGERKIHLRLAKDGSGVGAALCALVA

T2: Hxk2 (Saccharomyces cerevisiae, UniProt P04807)
T2 sequence (P04807 2-486): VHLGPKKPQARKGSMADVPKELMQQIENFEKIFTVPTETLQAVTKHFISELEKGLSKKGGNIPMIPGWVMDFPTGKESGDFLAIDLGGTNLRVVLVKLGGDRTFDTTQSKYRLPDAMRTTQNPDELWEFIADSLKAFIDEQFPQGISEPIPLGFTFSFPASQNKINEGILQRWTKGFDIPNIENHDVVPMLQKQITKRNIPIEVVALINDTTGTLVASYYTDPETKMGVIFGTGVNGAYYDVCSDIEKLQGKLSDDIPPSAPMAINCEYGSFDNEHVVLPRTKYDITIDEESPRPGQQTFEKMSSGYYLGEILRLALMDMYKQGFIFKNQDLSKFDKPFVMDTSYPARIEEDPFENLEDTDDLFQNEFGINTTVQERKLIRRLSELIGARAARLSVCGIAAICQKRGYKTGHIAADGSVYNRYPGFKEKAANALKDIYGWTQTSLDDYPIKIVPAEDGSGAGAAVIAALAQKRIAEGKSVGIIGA

T3: Glk1 (Saccharomyces cerevisiae, UniProt P17709)
T3 sequence (P17709 2-500): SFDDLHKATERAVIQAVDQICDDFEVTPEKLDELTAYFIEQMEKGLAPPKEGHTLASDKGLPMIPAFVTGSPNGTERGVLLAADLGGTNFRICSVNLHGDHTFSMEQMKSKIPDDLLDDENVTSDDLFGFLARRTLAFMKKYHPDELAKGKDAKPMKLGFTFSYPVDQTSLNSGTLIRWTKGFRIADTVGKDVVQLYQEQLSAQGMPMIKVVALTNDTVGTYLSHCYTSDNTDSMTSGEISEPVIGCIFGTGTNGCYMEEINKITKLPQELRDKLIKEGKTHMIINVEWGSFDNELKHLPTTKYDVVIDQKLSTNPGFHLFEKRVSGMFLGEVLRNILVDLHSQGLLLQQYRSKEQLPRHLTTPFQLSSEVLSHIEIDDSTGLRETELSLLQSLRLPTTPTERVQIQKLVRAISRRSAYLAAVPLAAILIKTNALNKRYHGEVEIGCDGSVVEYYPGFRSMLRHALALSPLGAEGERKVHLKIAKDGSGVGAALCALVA

T4: Hxk1 (Saccharomyces cerevisiae, UniProt P04806)
T4 sequence (P04806 1-485): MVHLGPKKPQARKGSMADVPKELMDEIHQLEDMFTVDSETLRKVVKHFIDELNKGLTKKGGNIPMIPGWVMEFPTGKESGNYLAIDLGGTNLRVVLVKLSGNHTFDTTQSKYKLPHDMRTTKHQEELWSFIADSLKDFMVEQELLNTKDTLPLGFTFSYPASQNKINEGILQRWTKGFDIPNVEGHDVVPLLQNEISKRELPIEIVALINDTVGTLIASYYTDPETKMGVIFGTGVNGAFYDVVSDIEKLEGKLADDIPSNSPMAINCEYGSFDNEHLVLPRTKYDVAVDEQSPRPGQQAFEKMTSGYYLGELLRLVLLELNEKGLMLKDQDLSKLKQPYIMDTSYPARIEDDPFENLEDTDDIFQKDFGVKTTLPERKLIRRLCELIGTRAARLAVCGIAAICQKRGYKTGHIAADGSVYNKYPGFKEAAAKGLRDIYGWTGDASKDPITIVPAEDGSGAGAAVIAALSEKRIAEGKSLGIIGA

B1: Ngk1 (YLR446Wp) (Saccharomyces cerevisiae S288C) (protein)
chain: MTIESTLARELESLILPADSIVNVVDQFQEELLSRLQTNTISMLPQCLVPDKRSRWNPEDKILTIDFGGTRLKFAIISLPQIVIEYNDAFELTYNIVDSNFFNQIIYTICTRLAANGYIKKKNESSEASKFFVSVTFSFPLNPEGEVVAMGKGFVMTDTLQGSTVKQLIQSSFHRIISENIEEFFCTMNVCHVINDAIAVSLTSKFICENDSISLIIGTGTNACFEVPYGYLPPFKRDALRETLPSSYNKETLNFKHVLINSEIGFIGKNVIALQPFDIHGAISYEMPLECVTSGKWLPLSLKNILLQYNIIPKNFPVEFNGELVCQLAEDCTNAWFENEHYALICQIARLLIKRAAFYVAAIVQAIDIITGCKNYNFIHIGYVGSFLHNSNFYREQIKYYSSIHIKLQFLNHSNLLGAAIATYLNKSDNQVQ
notes: full-length ORF, 433 residues, about 50 kDa predicted, N-terminal His6-tag (pCold II), E. coli BL21 (DE3), HisTrap purified; tag removal not mentioned

Legend:
[1] = target: T1, Emi2; assay: phosphorylation of glucose; assay type: biochemical; conditions: sugar phosphorylation with ATP; details in supplement
[2] = target: T2, Hxk2; assay: phosphorylation of glucose; assay type: biochemical; conditions: sugar phosphorylation with ATP; details in supplement
[3] = target: T3, Glk1; assay: phosphorylation of glucose; assay type: biochemical; conditions: sugar phosphorylation with ATP; details in supplement
[4] = target: T4, Hxk1; assay: phosphorylation of glucose; assay type: biochemical; conditions: sugar phosphorylation with ATP; details in supplement
[5] = substrate: Nc1ncnc2c1ncn2[C@@H]1O[C@H](COP(=O)(O)OP(=O)(O)OP(=O)(O)O)[C@@H](O)[C@H]1O; assay: pyruvate kinase / lactate dehydrogenase coupled assay, ADP formation; assay type: biochemical, Saccharomyces cerevisiae; conditions: GlcNAc as sugar substrate (concentration not given)

Molecule | phosphorylation of glucose [1] | phosphorylation of glucose [2] | phosphorylation of glucose [3] | phosphorylation of glucose [4] | Km [5] | kcat [5]
OC[C@H]1OC(O)[C@H](O)[C@@H](O)[C@@H]1O (stereo partly drawn) [glucose] | all these hexokinases clearly exhibited the activity for Glc | all these hexokinases clearly exhibited the activity for Glc | all these hexokinases clearly exhibited the activity for Glc | all these hexokinases clearly exhibited the activity for Glc |  | 
B1 |  |  |  |  | 1200 µM | 3.4 s⁻¹

— PMC9550789, “Identification and biochemical characterization of a novel N-acetylglucosamine kinase in Saccharomyces cerevisiae” (Scientific Reports, 2022)
